# Data as given in US20070265208A1, “Association of calpain inhibitors and reactive oxygen species trapping agents” (priority 2000, published 2007).
# Values joined by “and” are separate entries in the source; they are usually repeats but may differ in a detail not shown here. Equal entries are not always repeated. Non-standard residues stand in square brackets, D forms with d. Residues, ends and D or L forms follow the SMILES beside them. ξ: configuration not given here. *: point of attachment. ξF = NC(Cc1ccccc1)C(=O)O; Cbz = O=C(OCc1ccccc1)*
# Legend:
# rat glial cells C6 = test: Protection from necrosis induced by maitotoxin, C6 (wst-1 viability); type: cell-based
# Procedure: Human neuroblastomas SHSY5Y and rat glial cells C6 are seeded at 25 000 cells per well in 96-well plates in DMEM 10% FBS for 24 hours. The L6 rat myoblasts are seeded at 1000 cells per well in DMEM 10% FBS on 96-well microplates coated beforehand with gelatin 0.5% PBS. After culture for 3 days the medium is removed and replaced with a differentiation medium (DMEM+10 μg/ml of insulin+100 μg/ml of transferrin). 50 μl of product A plus 50 μl of solvent or 50 μl of product B are placed in the wells. After incubation for 1 hour at 37° C. under an atmosphere of 5% CO2, 10 μl of maitotoxin is added in order to obtain a final concentration of 0.1 nM to 1 nM (according to the cell type). After incubation for 3 hours at 37° C. under an atmosphere of 5% CO2, the cell viability is determined by adding 10 μl of tetrazolium salts (wst-1, Roche, ref: 1644807). The tetrazolium salts are cleaved into formazan molecules by mitochondrial dehydrogenases. The quantity of formazan formed is directly correlated to the number of metabolically active cells in the culture. Measurement of the absorbance of the formazan is carried out using a multiwell photometer at a wavelength of 420 nm against a reference wavelength of 620 nm.
# The theoretical effect was obtained by multiplying the percentage of dead cells in the presence of product A by the percentage of dead cells in the presence of product B (Table 3). The percentage protection against cell death induced by MTX being the percentage of cells kept alive in the presence of the product or products.
# In the light of the previous results, the combination of Example 1 with product A and product B at a rate of 100 μM of each of the products is carried out on human neuroblastomas (SHSY5Y; (Table 5A) and on glial cells with 25 μM of product A and 50 μM of product B (C6; Table 5B) on a larger number of cases.
# [1] = test system: calpain activity in rat glial cells (C6); test: In situ calpain activity in rat glial cells C6 stimulated by maitotoxin; type: cell-based; details: read-out: Inhibition human calpain I, in situ (C6) [IC50 (nM)]; n = 3; maitotoxin 1 nM; 1 h 30 min
# Procedure: Human neuroblastomas SHSY5Y and rat glial cells C6 are seeded at a rate of 50,000 and 25,000 cells respectively per well on 96-well plates in DMEM 10% FBS. The next day, the cells which have adhered are washed 3 times in DMEM medium without serum and 40 mM Hepes. 100 microlitres of product B is placed in the wells. After incubation for 1 hour at 37° C. under an atmosphere of 5% CO2, 10 μl containing the fluorescent substrate of calpain (Suc-Leu-Tyr-AMC) and maitotoxin (Sigma, ref: M-9159), in order to obtain a final concentration in the well of 100 μM and of 1 nM respectively are added.
# In order to determine the total activity of the cell enzyme, wells containing no product are added to the plate (100 μL DMSO 100th plus 10 μl of MTX and substrate). The background noise is determined by adding control wells with no MTX. Each concentration of the products (0.3 μM to 200 μM for the SHSY5Y's and 0.01 μM to 100 μM for the C6's) is tested in triplicate. The plates are shaken, the fluorescence is read at 380/460 nm using the Victor at T zero. Incubation takes place for four hours for the SHSY5Y and 1 hour 30 minutes for the C6 cells at 30° C. in darkness.
# human calpain I = target: T1, human calpain I (Homo sapiens, UniProt P07384); test: Effects on human calpain I (acellular, Suc-Leu-Tyr-AMC fluorescence); type: biochemical; details: enzyme purified from human erythrocytes; 1 h at 25°C; read-out: Inhibition human calpain I, acellular [IC50 (nM)]
# T1 construct: enzyme purified from human erythrocytes; purchased Calbiochem 208713; host or cells: human erythrocytes (native tissue source)
# T1 sequence (P07384 1-714): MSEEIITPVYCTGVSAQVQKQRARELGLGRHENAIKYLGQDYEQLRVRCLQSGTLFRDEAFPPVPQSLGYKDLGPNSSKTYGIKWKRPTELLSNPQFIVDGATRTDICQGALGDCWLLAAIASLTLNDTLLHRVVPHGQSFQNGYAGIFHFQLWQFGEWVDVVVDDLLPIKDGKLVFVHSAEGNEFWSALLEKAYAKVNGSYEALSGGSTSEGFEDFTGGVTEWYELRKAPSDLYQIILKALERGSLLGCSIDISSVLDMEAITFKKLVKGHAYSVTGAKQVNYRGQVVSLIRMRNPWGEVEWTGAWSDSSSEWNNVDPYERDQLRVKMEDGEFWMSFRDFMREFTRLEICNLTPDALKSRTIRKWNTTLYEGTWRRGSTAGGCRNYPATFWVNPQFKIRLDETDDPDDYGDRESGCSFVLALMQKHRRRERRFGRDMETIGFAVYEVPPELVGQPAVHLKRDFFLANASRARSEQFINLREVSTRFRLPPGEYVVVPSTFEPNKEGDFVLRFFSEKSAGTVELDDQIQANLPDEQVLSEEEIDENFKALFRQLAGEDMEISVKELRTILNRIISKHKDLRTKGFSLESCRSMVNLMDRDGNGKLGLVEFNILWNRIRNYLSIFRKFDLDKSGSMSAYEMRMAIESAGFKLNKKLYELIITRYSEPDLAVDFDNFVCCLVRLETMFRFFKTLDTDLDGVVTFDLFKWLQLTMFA
# T1 sequence (P04632 1-268 partner): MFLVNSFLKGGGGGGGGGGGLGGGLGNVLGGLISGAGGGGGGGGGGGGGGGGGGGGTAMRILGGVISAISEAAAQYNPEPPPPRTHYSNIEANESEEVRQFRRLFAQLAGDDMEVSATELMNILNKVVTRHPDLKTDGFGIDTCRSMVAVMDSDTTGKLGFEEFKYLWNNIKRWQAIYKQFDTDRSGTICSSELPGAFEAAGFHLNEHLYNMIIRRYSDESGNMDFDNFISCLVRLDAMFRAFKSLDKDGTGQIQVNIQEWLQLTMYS
# Procedure: The test consists of measuring the activity of the enzyme (enzyme purified from human erythrocytes) which is incubated in a buffer in the presence of a peptide substrate coupled with a fluorochrome (amino-methylcourmarin, AMC) and calcium. The enzyme activated by the calcium, proteolyses the substrate and releases the AMC fragment. The AMC released fluoresces at 460 nm under excitation at 380 nm. The activity of the enzyme is therefore proportional to the quantity of fluorescence i.e. of free AMC fragment. The fluorescence (380/460 nm) is measured using a multi-well fluorimeter (Victor 2, Wallac).
# Assay is carried out in 96-well microplates with transparent bottoms and black walls in which 10 μl per well of substance to be tested in DMSO 10%, 45 μl of reaction mixture containing the human calpain I at 2.2 U/ml (Calbiochem, ref: 208713), the Suc Leu Tyr-AMC substrate (Bachem, ref: I-1355) at 1.1 mM in a buffer (Tris-HCl 110 mM; NaCl 110 mM; EDTA 2.2 mM; EGTA 2.2 mM; mercaptoethanol 1.1 mM) are distributed. The reaction is initiated by adding 45 μl of CaCl2 22mM. To determine the background noise, control wells without calcium are added to the plate (10 μL DMSO 10%+45 μL of buffer with the enzyme and the susbtrate +45 μL H2O). In order to determine the total activity of the enzyme control wells containing no product are added to the plate (10 μL DMSO 10%+45 μL of buffer with the enzyme and the substrate +45 μL of CaCl2 22 mM ). Each concentration of the products (0.1 nM to 10 μM) is tested in duplicate. The plates are shaken and incubation takes place for one hour at 25° C. in darkness. The fluorescence is read at 380/460 nm using the Victor.
# [2] = test system: lipidic peroxidation of rat cerebral cortex homogenate; test: In vitro lipidic peroxidation (Fenton reaction, MDA) in rat cerebral cortex membranes; type: biochemical; details: iron/ascorbate, read-out: Inhibition of lipidic peroxidation [IC50 (μM)]
# Procedure: The test consists of inducing lipidic peroxidation by Fenton reactions in the presence of iron and ascorbate. The degree of lipidic peroxidation is determined by the concentration of malonaldehyde (MDA). The MDA produced by the lipidic peroxidation of unsaturated fatty acids is a good indicator of lipidic peroxidation (Esterbauer et al, 1990; Meth. Enzymol. 186: 407421). For this colorimetric test, the condensation of a molecule of MDA with two molecules of chromogenic reagent R (N-methyl-2-phenylindole) produces a stable chromophore the maximum absorbance wavelength of which is equal to […].
# The membranes are prepared from the cortexes of male Sprague Dawley rats weighing 200 to 250 g. The animals are sacrificed by decapitation and the brains are immediately removed and rinsed in cold Tris HCl 20 mM pH 7.4. The cortexes, after dissection and removal of the white matter, are then ground with the Thomas potter, in Tris HCl buffer 20 mM pH 7.4 at 4° C. The homogenate obtained is centrifuged at low speed in order to eliminate the large debris (515 g for 15 minutes at 4° C.). The supernatant is then distributed into polycarbonate centrifugation tubes and centrifuged at 51500 g for 25 min at 4° C. The membrane pellets are kept at −80° C.
# On the day of the experiment, the frozen membranes are resuspended at a concentration of 0.5 equivalent grams of cortex per 5 ml of Tris HCl buffer 20 mM pH 7.4 and homogeneized using a combitips. In 96-well “deep-well” 1 ml polypropylene plates with a conical base, 5 μl per well of the product to be tested or of solvent is mixed with 40 μl of rat cerebral cortex homogenate by centrifugation (800 rpm). The plates are covered with a self-adhesive aluminium sheet and incubated at 37° C. for 15 minutes under agitation. […]
# The membranes and the supernatants are separated by filtration under vacuum on a 96-well plate with a multiscreen filtering base NA (Millipore, ref: MANANLY 50). The absorbance of the supernatants recovered in the 96-well plates is read using a photometer.
# [3] = single product at 100 μM, n = 1
smiles,measurement,setting,value
"CC(C)C[C@H](NC(=O)OCc1ccccc1)C(=O)NC(C=O)Cc1ccccc1 (stereo partly drawn) [EXAMPLE 2 B, benzyl (1S)-1-{[(1-benzyl-2-oxoethyl)amino]carbonyl)-3-methylbutylcarbamate] (Cbz-Leu-[ξF]-aldehyde)",Protection from necrosis induced by MTX on C6,"rat glial cells C6; single product at 50 μM, n = 3 for Example 2, else n = 1",12.05 ± 2.82%
same,Protection from necrosis induced by MTX on C6,"rat glial cells C6; single product at 50 μM, n = 3 for Example 2, else n = 1, listed as Z-Leu-Phe-H",inactive
same,IC50,[1],2200 ± 290 nM
same,IC50,human calpain I,8 nM
"O=C(O)C(S)=Cc1ccc(I)cc1 [EXAMPLE 4 B, 3-(4-iodophenyl)-2-mercapto-2-propenoic acid]",Protection from necrosis induced by MTX on C6,rat glial cells C6; single product at 25 μM,0.69%
same,Protection from necrosis induced by MTX on C6,rat glial cells C6; [3],0.36% and 2.75%
same,IC50,human calpain I,5140 nM
"Oc1ccc(Nc2ccccc2)cc1 [EXAMPLE 5 A, 4-hydroxydiphenylamine]",IC50,[2],0.093 µM
same,Protection from necrosis induced by MTX on C6,rat glial cells C6; [3],17.90%
same,Protection from necrosis induced by MTX on C6,"rat glial cells C6; single product at 100 μM, n = 1, listed as EXAMPLE 6 A",9.43%
"CC(=O)N[C@@H](CC(C)C)C(=O)N[C@@H](CC(C)C)C(=O)N[C@H](C=O)CCCNC(=N)N [LEUPEPTIN, leupeptin]",IC50,human calpain I,73 nM
